The assay concerns the target T1, SIRT5 (Homo sapiens, UniProt Q9NXA8).
T1 sequence (Q9NXA8 37-310): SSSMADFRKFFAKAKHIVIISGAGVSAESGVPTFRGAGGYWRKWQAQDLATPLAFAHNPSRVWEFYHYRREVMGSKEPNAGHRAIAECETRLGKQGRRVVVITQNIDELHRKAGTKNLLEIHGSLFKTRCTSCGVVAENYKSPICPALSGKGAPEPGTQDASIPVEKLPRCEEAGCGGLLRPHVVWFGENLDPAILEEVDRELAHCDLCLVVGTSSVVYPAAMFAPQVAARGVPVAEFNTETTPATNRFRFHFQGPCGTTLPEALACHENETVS
In words: SIRT5 deacetylation activation assay (radiolabelled NAD+, DEAE-Sephadex column, turnover with vs without activator). Type of assay: biochemical. Here is the method:
The reactions were processed using DEAE columns. […]
Reactions containing NAD^+ including [2,8A^−3H]-NAD^+, peptide substrate, with or without activator in 100 mM phosphate buffer (pH 7.5) were initiated by addition of SIRT5 enzyme to a concentration of 10 μM. Reactions were incubated at 37° C. for 1 h and quenched by addition of trifluoroacetic acid to pH 2. After centrifugation to remove the precipitates, reactions were loaded onto columns containing pre-equilibrated DEAE-Sephadex (equilibrated with 5 mM ammonium acetate pH 7). The reaction mixture was then eluted with eight fractions of 20 mM ammonium acetate pH 7 and three fractions of 300 mM ammonium acetate pH 7. The radioactivity contained in the eluents was then quantified by scintillation counter. Radiolabelled NAD^+ eluted in the 20 mM washes, while products ADPR and AADPR eluted in the 300 mM fractions. Radioactivity in the remaining NAD^+ fractions and the radioactivity in the product fractions were then converted to a turnover rate (1/s) by adjustment for specific radioactivity and enzyme concentration. The turnovers from the reaction with or without the activators were compared to show the percentage of activation.
Test compounds were assayed against SIRT5 as described in Example 1.

[1] abbreviates: FIG. 4, 500 μM JB12, 500 μM NAD+, 1 mM of activator compound.
Where [2] appears, read: FIG. 4, 500 μM JB12, 500 μM NAD+, 1 mM of activator compound, read-out: Km of activator for activation of SIRT5-catalyzed deacetylation.
The mark [3] stands for this setting: FIG. 3, varying concentrations of activator, 500 μM NAD+, 500 μM JB12, DEAE columns.
The mark [4] stands for this setting: FIG. 3, varying concentrations of activator, 500 μM NAD+, 500 μM JB12, DEAE columns, read-out: Km of activator for activation of SIRT5-catalyzed deacetylation (Michaelis Menten curve fitting).

Where two headings read alike, the source gives them in different places.

Results on 13 molecules are retold here after patent US9603862B2, “Activation and activators of SIRT5” (CORNELL UNIVERSITY, priority 2009, dated 2017).

The molecule `NC(=O)c1ccc[n+]([C@@H]2O[C@H](CO)C(O)C2O)c1` (stereo partly drawn) yielded an SIRT5 % activated (at 800 μM test compound) of 100% activated at 800 μM.

Take `CCOC(=O)c1ccc[n+]([C@@H]2O[C@H](CO)[C@@H](O)[C@H]2O)c1` [O-ethyl NR, ethyl nicotinate riboside]: the “max activation of SIRT5 deacetylation” value under setting [1] came out at 150%. Moreover, under setting [2], the Km was 323 µM. Consider `CCOC(=O)c1ccc[n+]([C@@H]2O[C@H](CO)C(O)C2O)c1` (stereo partly drawn), for which the SIRT5 % activated (at 600 μM test compound) was found to be 40% activated at 600 μM. Turning to `O=C([O-])c1ccc[n+]([C@@H]2O[C@H](CO)[C@@H](O)[C@H]2O)c1` [NaR, nicotinic acid riboside], the “max activation of SIRT5 deacetylation” value under setting [1] stood at 160%. In addition, the Km under setting [2] was determined as 821 µM. `NC(=O)c1ccc[n+](C2O[C@H](CO)[C@@H](O)[C@H]2Cl)c1` (stereo partly drawn) [ribo-Cl-NR, 1-(2′-deoxy-2′-chloro-ribofuranosyl)-nicotinamide]: the “max activation of SIRT5 deacetylation” value under setting [3] was 125%. Further, the Michaelis constant (Km) under setting [4] was found to be 95 µM. For the setting “at 600 μM test compound”, `COC(=O)c1ccc[n+]([C@@H]2O[C@H](CO)C(O)C2O)c1` (stereo partly drawn) showed an SIRT5 % activated of 80% activated at 600 μM. `NC(=O)c1ccc[n+]([C@@H]2O[C@H](CO)C(O)C2Cl)c1` (stereo partly drawn): where the note is “at 1 mM test compound”, the SIRT5 % activated stood at 75% activated at 1 mM.

Consider `NC(=O)c1ccc[n+]([C@@H]2O[C@H](CO)[C@@H](O)[C@H]2O)c1` [NR, nicotinamide riboside], for which the Emax (FIG. 3, varying concentrations of activator, 500 μM NAD+, 500 μM JB12, DEAE columns, read-out: max activation of SIRT5 deacetylation) amounted to 200%. For `COC(=O)c1ccc[n+]([C@@H]2O[C@H](CO)[C@@H](O)[C@H]2O)c1` [O-methyl NR, methyl nicotinate riboside], the “max activation of SIRT5 deacetylation” value under setting [1] was 190%. Also, the Michaelis-Menten constant (Km) under setting [2] came out at 93 µM. Regarding `NC(=O)c1ccc[n+](C2O[C@H](CO)[C@@H](O)C2(F)F)c1` (stereo partly drawn) [gem-diF-NR, 1-(2′-deoxy-2′,2′-difluoro-ribofuranosyl)-nicotinamide], the “max activation of SIRT5 deacetylation” value under setting [3] is given as 120%. For the same molecule, the Michaelis-Menten constant (Km) under setting [4] stood at 50 µM.

As for `O=C(O)c1ccc[n+]([C@@H]2O[C@H](CO)C(O)C2O)c1` (stereo partly drawn), the SIRT5 % activated (at 800 μM test compound) is listed as 60% activated at 800 μM.

`NC(=O)c1ccc[n+]([C@@H]2O[C@H](CO)C(O)C2(F)F)c1` (stereo partly drawn) yielded an SIRT5 % activated (at 2.4 mM test compound) of 90% activated at 2.4 mM. Where the note is “at 160 μM test compound”, `COB(OC)c1ccc[n+]([C@H]2CC(O)[C@@H](COP(=O)([O-])O)O2)c1` (stereo partly drawn) displayed an SIRT5 % activated of 50% activated at 160 μM.

One may read the Km as the substrate concentration at which the rate is half of its maximum.
